Values quoted from earlier work in US10674726B2, “Composition” (Conopco, Inc., priority 2013, dated 2020).

Conditions: at neutral pH

| Critical Micelle Concentration [mg/L] | SMILES |
| --- | --- |
| 30 | CCCCCCCC(CC(=O)O)OC(=O)CC(CCCCCCC)OC1OC(C)C(O)C(O)C1OC1OC(C)C(O)C(O)C1O (centres unmarked) [dirhamnolipid, 3-[3-[4,5-dihydroxy-6-methyl-3-(3,4,5-trihydroxy-6-methyloxan-2-yl)oxyoxan-2-yl]oxydecanoyloxy]decanoic acid] |
| 20 | CCCCCCCC(CC(=O)O)OC(=O)CC(CCCCCCC)O[C@@H]1O[C@@H](C)[C@H](O)[C@@H](O)[C@H]1O (stereo partly drawn) [mono-rhamnolipid, 3-[3-[(2R,3R,4R,5R,6S)-3,4,5-trihydroxy-6-methyloxan-2-yl]oxydecanoyloxy]decanoic acid] |
